From patent US10206937B2, “Boronic acid derivatives and therapeutic uses thereof” (Qpex Biopharma, Inc., priority 2014, dated 2019)
Where two headings read alike, the source gives them in different places.

What was measured:
NDM-1 [1] = target: T1, NDM-1 (Klebsiella pneumoniae, UniProt C7C422); assay: biochemical
VIM-1 = target: T2, VIM-1 (Pseudomonas aeruginosa, UniProt A0A0F7KYQ8); assay: biochemical; details: cleavage of nitrocefin (200 uM) by VIM-1 supernatant
T2 construct: made in house; host or cells: ECM6711 strain carrying pUCP24-VIM-1 plasmid; culture supernatant used unpurified

KPC-2 = KPC-2 (Klebsiella pneumoniae, UniProt Q9F663); assay: Inhibition of purified class A carbapenemase KPC-2 (Ki, carbapenem substrates); type: biochemical
OXA-48 = OXA-48 (Klebsiella pneumoniae, UniProt Q6XEC0); assay: Inhibition of purified class D carbapenemase OXA-48 (Ki, carbapenem substrates); type: biochemical
NDM-1 [2] = target: T1, NDM-1; assay: Inhibition of purified class B carbapenemase NDM-1 (Ki, imipenem substrate); type: biochemical; details: NDM-1, substrate imipenem; read-out: Ki NDM-1, Imipenem
[3] = target: T3, purified class A, C and D enzymes (UniProt P0AD64, L31Q/G234S/E235K, species not given); type: biochemical; details: read-out: Ki (SHV-12, NCF); purified SHV-12; nitrocefin reporter substrate
T3 construct: Ki (SHV-12, NCF); other: purified SHV-12; nitrocefin reporter substrate
T3 sequence (P0AD64 1-286 L31Q/G234S/E235K): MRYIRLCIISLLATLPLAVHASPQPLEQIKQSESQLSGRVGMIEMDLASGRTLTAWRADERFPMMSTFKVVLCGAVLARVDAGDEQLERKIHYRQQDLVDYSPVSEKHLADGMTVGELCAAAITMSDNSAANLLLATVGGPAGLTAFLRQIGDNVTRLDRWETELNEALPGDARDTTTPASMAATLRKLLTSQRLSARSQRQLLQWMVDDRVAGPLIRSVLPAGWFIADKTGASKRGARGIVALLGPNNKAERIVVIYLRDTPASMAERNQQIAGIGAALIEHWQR

[4] = target: T4, purified class A, C and D enzymes (UniProt Q6XEC0); type: biochemical; details: read-out: Ki (OXA-48, NCF); purified OXA-48; nitrocefin reporter substrate
T4 construct: rows headed: Ki (OXA-48, NCF); other: purified OXA-48; nitrocefin reporter substrate

[5] = target: T5, purified class A, C and D enzymes (UniProt Q9F663); type: biochemical; details: read-out: Ki (KPC-2, NCF); purified KPC-2; nitrocefin reporter substrate
T5 construct: rows headed: Ki (KPC-2, NCF); other: purified KPC-2; nitrocefin reporter substrate

[6] = target: purified class A, C and D enzymes (Enterobacter cloacae, UniProt P05364); type: biochemical; details: purified P99/AmpC of ECL; nitrocefin reporter substrate
[7] = target: purified class A, C and D enzymes (Escherichia coli, UniProt Q9L5C7); type: biochemical; details: purified CTX-M-14; nitrocefin reporter substrate
[8] = system: strains of Enterobacteriaceae producing various carbapenemases (class A, D and B; 104 strains); assay: Antibiotics potentiation by Compound 27 (MIC; meropenem, doripenem, ertapenem, cefepime); type: cell-based; details: Compound 27 at a fixed concentration of 4 μg/ml
[9] = system: strains of Enterobacteriaceae producing various carbapenemases (class A, D and B; 169 strains); assay: Meropenem or tebipenem potentiation by Compounds 97 or 62 (MIC); type: cell-based; details: Compound 62 at a fixed concentration of 8 μg/ml
Experimental: The largest panel of clinical isolates expressing class A, D and B carbapenemases alone or in combination with other beta-lactamases (169 strains) was used to evaluate carbapenem potentiation activity of Compounds 97 and 62. MIC for meropenem and tebipenem of these strains were determined either alone or in the presence of Compounds 97 or 62, respectively, at a fixed concentration of 8 μg/ml in the growth media.

[10] = Serum stability of prodrugs: hydrolysis by human serum; type: in vitro ADME; details: prodrug; for Measured Initial Conc. in Serum: 37 degrees, sampled immediately
Experimental: (§1) Prodrug strategy is one of the ways to achieve or increase oral bioavailability for therapeutic drugs. Compound 62 was used as a template for various ester prodrugs. After a prodrug molecule is absorbed into systemic circulation, it should be hydrolyzed in the blood in order to release the active form. Hydrolysis of several prodrugs by rat and human serum were evaluated.
(§2) For all stability experiments the test compounds were treated with rat or human serum in Eppendorf tubes. Typically, 980 μl of serum was prewarmed at 37 degrees for 2 minutes and then 20 μl of a compound (at 1 mg/ml, 50×) was added to it to get a final concentration of 20 μg/ml and immediately mixed. Duplicate samples were tested. […] After vortexing for 30 seconds, the tube was centrifuged in a microcentrifuge for 10 minutes at 15K rpm. Next, 100 μl of the supernatant was combined with 600 μl of water and injected on LC-MS using 0.1% formic acid in water for mobile phase A and 0.1% formic acid in methanol for mobile phase B on an ACE 5 C18 2.1×100 mm column with a 10 μL it injection. The flow rate and gradient were adjusted as needed to give the desired resolution and run time. The pH of the mobile phase was adjusted if needed to improve the chromatography.
(§3) The time course of both the disappearance of a prodrug and the appearance of the active form of that prodrug is presented in Table 13 and Table 14. The active metabolites for all of the listed prodrugs are corresponding parent drugs

[11] = Serum stability of prodrugs: hydrolysis by rat serum; type: in vitro ADME; details: rat serum, prodrug; for Measured Initial Conc. in Serum: 37 degrees, sampled immediately
Experimental: as §1, §2, §3

[12] = cleavage of imipenem (100 uM) by NDM-1, read-out: Ki, Imipenem
[13] = cleavage of biapenem by KPC-2, read-out: Ki, Biapenem
[14] = cleavage of doripenem by KPC-2, read-out: Ki, Doripenem
[15] = cleavage of imipenem by KPC-2, read-out: Ki, Imipenem
[16] = cleavage of meropenem by KPC-2, read-out: Ki, Meropenem
[17] = cleavage of tebipenem by KPC-2, read-out: Ki, Tebipenem
[18] = cleavage of biapenem by OXA-48, read-out: Ki, Biapenem
[19] = cleavage of doripenem by OXA-48, read-out: Ki, Doripenem
[20] = cleavage of imipenem by OXA-48, read-out: Ki, Imipenem
[21] = cleavage of meropenem by OXA-48, read-out: Ki, Meropenem
[22] = cleavage of tebipenem by OXA-48, read-out: Ki, Tebipenem
[23] = cleavage of biapenem (100 uM) by NDM-1, read-out: Ki, Biapenem
[24] = cleavage of meropenem (100 uM) by NDM-1, read-out: Ki, Meropenem
[25] = cleavage of tebipenem (100 uM) by NDM-1, read-out: Ki, Tebipenem
[26] = purified KPC-2, substrate biapenem, read-out: Ki KPC-2, Biapenem
[27] = purified OXA-48, substrate biapenem, read-out: Ki OXA-48, Biapenem

Chain of purified class A, C and D enzymes (Enterobacter cloacae, UniProt P05364) (P05364 21-381): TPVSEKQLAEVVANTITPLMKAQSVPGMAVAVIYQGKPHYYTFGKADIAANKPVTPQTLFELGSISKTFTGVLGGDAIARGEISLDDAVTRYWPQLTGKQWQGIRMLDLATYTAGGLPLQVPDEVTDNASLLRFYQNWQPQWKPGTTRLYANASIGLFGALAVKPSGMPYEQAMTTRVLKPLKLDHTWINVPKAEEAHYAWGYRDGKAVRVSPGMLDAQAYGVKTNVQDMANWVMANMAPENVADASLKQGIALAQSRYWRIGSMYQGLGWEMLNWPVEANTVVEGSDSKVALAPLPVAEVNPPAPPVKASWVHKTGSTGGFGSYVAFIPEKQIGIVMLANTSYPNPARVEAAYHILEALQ
T1 sequence (C7C422 29-270, looked up, species assumed): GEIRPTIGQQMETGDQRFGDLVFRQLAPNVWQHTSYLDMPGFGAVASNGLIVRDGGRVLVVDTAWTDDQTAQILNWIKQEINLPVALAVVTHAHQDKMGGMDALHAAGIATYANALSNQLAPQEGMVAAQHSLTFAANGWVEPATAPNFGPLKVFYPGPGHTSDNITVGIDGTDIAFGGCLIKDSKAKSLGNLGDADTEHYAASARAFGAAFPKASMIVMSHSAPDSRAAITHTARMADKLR
Chain of purified class A, C and D enzymes (Escherichia coli, UniProt Q9L5C7) (Q9L5C7 entry or part of it): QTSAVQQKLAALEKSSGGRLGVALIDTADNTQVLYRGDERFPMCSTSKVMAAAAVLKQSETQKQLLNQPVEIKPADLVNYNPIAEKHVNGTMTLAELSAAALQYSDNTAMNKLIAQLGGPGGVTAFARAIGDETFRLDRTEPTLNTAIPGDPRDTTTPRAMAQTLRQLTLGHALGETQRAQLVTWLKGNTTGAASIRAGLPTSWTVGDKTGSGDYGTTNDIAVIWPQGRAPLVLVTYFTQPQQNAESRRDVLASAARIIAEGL
Chain of KPC-2 (Q9F663 25-293 limits assumed): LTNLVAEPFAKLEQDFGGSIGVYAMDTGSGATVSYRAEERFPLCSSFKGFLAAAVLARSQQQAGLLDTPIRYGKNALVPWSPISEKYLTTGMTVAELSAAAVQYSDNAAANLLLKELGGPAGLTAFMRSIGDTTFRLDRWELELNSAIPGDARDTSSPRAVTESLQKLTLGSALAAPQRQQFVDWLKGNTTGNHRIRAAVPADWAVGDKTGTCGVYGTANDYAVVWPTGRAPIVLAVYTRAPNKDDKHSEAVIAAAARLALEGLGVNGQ
Chain of OXA-48 (Q6XEC0 23-265, looked up): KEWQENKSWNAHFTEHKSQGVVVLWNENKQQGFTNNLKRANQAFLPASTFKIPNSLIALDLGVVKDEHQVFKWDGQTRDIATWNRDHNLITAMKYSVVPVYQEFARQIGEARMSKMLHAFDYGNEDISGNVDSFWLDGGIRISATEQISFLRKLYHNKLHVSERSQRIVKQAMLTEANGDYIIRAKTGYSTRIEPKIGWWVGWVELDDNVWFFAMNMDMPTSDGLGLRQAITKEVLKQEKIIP

SMILES	Ki (NDM-1 [1]; [12]) [µM]	IC50 (VIM-1) [µM]	Ki (KPC-2; [13]) [µM]	Ki (KPC-2; [14]) [µM]	Ki (KPC-2; [15]) [µM]	Ki (KPC-2; [16]) [µM]	Ki (KPC-2; [17]) [µM]	Ki (OXA-48; [18]) [µM]	Ki (OXA-48; [19]) [µM]	Ki (OXA-48; [20]) [µM]	Ki (OXA-48; [21]) [µM]	Ki (OXA-48; [22]) [µM]	Ki (NDM-1 [2]) [µM]	Ki [3] [µM]	Ki [4] [µM]	Ki [5] [µM]	Ki (NDM-1 [1]; [23]) [µM]	Ki (NDM-1 [1]; [24]) [µM]	Ki (P99/AmpC of ECL, NCF) [6]	Ki (CTX-M-14, NCF) [7]	further results
Nc1nnc(S[C@H]2Cc3ccc(F)c(C(=O)O)c3OB2O)s1 [Compound 23, (R)-3-(5-amino-1,3,4-thiadiazol-2-ylthio)-7-fluoro-2-hydroxy-3,4-dihydro-2H-benzo[e][1,2]oxaborinine-8-carboxylic acid]	0.01 to 0.1	≥ 1	< 0.01	< 0.01	0.01 to 0.1	< 0.01	< 0.01	< 0.01	< 0.01	< 0.01	< 0.01	< 0.01	0.01 to 0.1	< 0.1	< 0.1	< 0.1	–	–	–	–	–
COc1ccc2c(c1C(=O)O)OB(O)[C@@H](Sc1nnc(N)s1)C2 [Compound 27, (R)-3-(5-amino-1,3,4-thiadiazol-2-ylthio)-2-hydroxy-7-methoxy-3,4-dihydro-2H-benzo[e][1,2]oxaborinine-8-carboxylic acid]	0.01 to 0.1	< 1	< 0.01	< 0.01	0.01 to 0.1	< 0.01	< 0.01	< 0.01	< 0.01	< 0.01	< 0.01	< 0.01	0.01 to 0.1	< 0.1	< 0.1	< 0.1	0.01 to 0.1	< 0.01	Y (0.1 μM to 1 μM)	X (Less than 0.1 μM)	Ki (NDM-1 [1]; [25]): 0.01 to 0.1 µM; Ki (KPC-2; [26]): 0.01 to 0.1 µM; Ki (OXA-48; [27]): 0.01 to 0.1 µM; antibiotics MIC (meropenem, doripenem, ertapenem, cefepime) [8]: significantly reduced
CSc1ccc2c(c1C(=O)O)OB(O)[C@@H](Sc1nnc(N)s1)C2 [Compound 30, (R)-3-(5-amino-1,3,4-thiadiazol-2-ylthio)-2-hydroxy-7-(methylthio)-3,4-dihydro-2H-benzo[e][1,2]oxaborinine-8-carboxylic acid]	0.01 to 0.1	< 1	< 0.01	< 0.01	0.01 to 0.1	< 0.01	< 0.01	< 0.01	< 0.01	< 0.01	< 0.01	< 0.01	0.01 to 0.1	< 0.1	< 0.1	< 0.1	0.01 to 0.1	< 0.01	X (Less than 0.1 μM)	X (Less than 0.1 μM)	Ki (NDM-1 [1]; [25]): 0.01 to 0.1 µM; Ki (KPC-2; [26]): 0.01 to 0.1 µM; Ki (OXA-48; [27]): 0.01 to 0.1 µM
COc1ccc2c(c1C(=O)O)OB(O)[C@@H](Sc1nncs1)C2 [Compound 62, (3R)-2-hydroxy-7-methoxy-3-(1,3,4-thiadiazol-2-ylsulfanyl)-3,4-dihydro-1,2-benzoxaborinine-8-carboxylic acid]	> 0.1	< 1	< 0.01	< 0.01	0.01 to 0.1	< 0.01	–	< 0.01	< 0.01	< 0.01	< 0.01	–	> 0.1	< 0.1	< 0.1	< 0.1	0.01 to 0.1	–	Y (0.1 μM to 1 μM)	X (Less than 0.1 μM)	Ki (KPC-2; purified KPC-2, substrate biapenem, numeric value, read-out: Ki KPC-2, Biapenem): 0.0039 µM; Ki (OXA-48; purified OXA-48, substrate biapenem, numeric value, read-out: Ki OXA-48, Biapenem): 0.0056 µM; tebipenem MIC [9]: significantly reduced
COc1ccc2c(c1C(=O)OCOC(=O)C(C)C)OB(O)[C@@H](Sc1nncs1)C2 [Compound 121, 2-methylpropanoyloxymethyl (3R)-2-hydroxy-7-methoxy-3-(1,3,4-thiadiazol-2-ylsulfanyl)-3,4-dihydro-1,2-benzoxaborinine-8-carboxylate]	–	–	–	–	–	–	–	–	–	–	–	–	–	–	–	–	–	–	–	–	Measured Initial Conc. in Serum [10]: 51.4 µM; Conc. at t = 1 hr [10]: 38.6 µM; Conc. at t = 3 hr [10]: 24.8 µM; Measured Initial Conc. in Serum [11]: 31.3 µM; Conc. at t = 1 hr [11]: 40.7 µM; Conc. at t = 3 hr [11]: 24.3 µM
COc1ccc2c(c1C(=O)OCOC(=O)OC(C)C)OB(O)[C@@H](Sc1nncs1)C2 [Compound 122, isopropoxycarbonyloxymethyl (3R)-2-hydroxy-7-methoxy-3-(1,3,4-thiadiazol-2-ylsulfanyl)-3,4-dihydro-1,2-benzoxaborinine-8-carboxylate]	–	–	–	–	–	–	–	–	–	–	–	–	–	–	–	–	–	–	–	–	Measured Initial Conc. in Serum [10]: 44.3 µM; Conc. at t = 1 hr [10]: 34.1 µM; Conc. at t = 3 hr [10]: 47.1 µM; Measured Initial Conc. in Serum [11]: 37.7 µM; Conc. at t = 1 hr [11]: 26.6 µM; Conc. at t = 3 hr [11]: 39.0 µM
